Laboratory results published in ChEMBL document CHEMBL5325403, “Benzenesulfonyl thiazoloimines as unique multitargeting antibacterial agents towards Enterococcus faecalis” (Eur J Med Chem, 2023).
In brackets after ≈: the same amount, converted by molar mass.

Key:
Type in all cases: functional
Staphylococcus aureus [1] = experiment: Antibacterial activity against methicillin-resistant Staphylococcus aureus N315 assessed as inhibition of bacterial growth by continuous dilution method
Enterococcus faecalis = experiment: Antibacterial activity against Enterococcus faecalis assessed as inhibition of bacterial growth by continuous dilution method
Staphylococcus aureus [2] = experiment: Antibacterial activity against Staphylococcus aureus assessed as inhibition of bacterial growth by continuous dilution method
Staphylococcus aureus [3] = experiment: Antibacterial activity against Staphylococcus aureus ATCC 25923 assessed as inhibition of bacterial growth by continuous dilution method
Staphylococcus aureus [4] = experiment: Antibacterial activity against Staphylococcus aureus ATCC 29213 assessed as inhibition of bacterial growth by continuous dilution method
Klebsiella pneumoniae = experiment: Antibacterial activity against Klebsiella pneumoniae assessed as inhibition of bacterial growth by continuous dilution method
Escherichia coli [5] = experiment: Antibacterial activity against Escherichia coli assessed as inhibition of bacterial growth by continuous dilution method
Pseudomonas aeruginosa [6] = experiment: Antibacterial activity against Pseudomonas aeruginosa assessed as inhibition of bacterial growth by continuous dilution method
Acinetobacter baumannii = experiment: Antibacterial activity against Acinetobacter baumannii assessed as inhibition of bacterial growth by continuous dilution method
Pseudomonas aeruginosa [7] = experiment: Antibacterial activity against Pseudomonas aeruginosa ATCC 27853 assessed as inhibition of bacterial growth by continuous dilution method
Escherichia coli [8] = experiment: Antibacterial activity against Escherichia coli ATCC 25922 assessed as inhibition of bacterial growth by continuous dilution method

Structure (SMILES)	MIC (Staphylococcus aureus [1])	MIC (Enterococcus faecalis)	MIC (Staphylococcus aureus [2])	MIC (Staphylococcus aureus [3])	MIC (Staphylococcus aureus [4])	MIC (Klebsiella pneumoniae)	MIC (Escherichia coli [5])	MIC (Pseudomonas aeruginosa [6])	MIC (Acinetobacter baumannii)	MIC (Pseudomonas aeruginosa [7])	MIC (Escherichia coli [8])
CC(=O)Nc1ccc(S(=O)(=O)/C(=C\c2ccc([N+](=O)[O-])cc2)C(=O)c2nccs2)cc1	128 µg/mL (≈ 280 µM)	128 µg/mL (≈ 280 µM)	256 µg/mL (≈ 560 µM)	256 µg/mL (≈ 560 µM)	256 µg/mL (≈ 560 µM)	128 µg/mL (≈ 280 µM)	32 µg/mL (≈ 69.9 µM)	64 µg/mL (≈ 140 µM)	256 µg/mL (≈ 560 µM)	64 µg/mL (≈ 140 µM)	64 µg/mL (≈ 140 µM)
CCCCO/N=C(/CS(=O)(=O)c1ccc(NC(C)=O)cc1)c1nccs1	64 µg/mL (≈ 162 µM)	64 µg/mL (≈ 162 µM)	64 µg/mL (≈ 162 µM)	128 µg/mL (≈ 324 µM)	64 µg/mL (≈ 162 µM)	16 µg/mL (≈ 40.5 µM)	32 µg/mL (≈ 80.9 µM)	64 µg/mL (≈ 162 µM)	128 µg/mL (≈ 324 µM)	64 µg/mL (≈ 162 µM)	16 µg/mL (≈ 40.5 µM)
CCO/N=C(/CS(=O)(=O)c1ccc(N)cc1)c1nccs1	256 µg/mL (≈ 787 µM)	64 µg/mL (≈ 197 µM)	256 µg/mL (≈ 787 µM)	64 µg/mL (≈ 197 µM)	64 µg/mL (≈ 197 µM)	32 µg/mL (≈ 98.3 µM)	16 µg/mL (≈ 49.2 µM)	64 µg/mL (≈ 197 µM)	128 µg/mL (≈ 393 µM)	32 µg/mL (≈ 98.3 µM)	32 µg/mL (≈ 98.3 µM)
CC(=O)Nc1ccc(S(=O)(=O)/C(=C\c2ccc(F)cc2F)C(=O)c2nccs2)cc1	64 µg/mL (≈ 143 µM)	128 µg/mL (≈ 285 µM)	128 µg/mL (≈ 285 µM)	256 µg/mL (≈ 571 µM)	256 µg/mL (≈ 571 µM)	128 µg/mL (≈ 285 µM)	128 µg/mL (≈ 285 µM)	128 µg/mL (≈ 285 µM)	128 µg/mL (≈ 285 µM)	64 µg/mL (≈ 143 µM)	128 µg/mL (≈ 285 µM)
CC(=O)Nc1ccc(S(=O)(=O)C/C(=N/Nc2ccc(C(=O)O)cc2)c2nccs2)cc1	8 µg/mL (≈ 17.4 µM)	16 µg/mL (≈ 34.9 µM)	2 µg/mL (≈ 4.36 µM)	32 µg/mL (≈ 69.8 µM)	32 µg/mL (≈ 69.8 µM)	128 µg/mL (≈ 279 µM)	64 µg/mL (≈ 140 µM)	128 µg/mL (≈ 279 µM)	64 µg/mL (≈ 140 µM)	32 µg/mL (≈ 69.8 µM)	32 µg/mL (≈ 69.8 µM)
CC(=O)Nc1ccc(S(=O)(=O)/C(=C\c2ccc(C)cc2)C(=O)c2nccs2)cc1	128 µg/mL (≈ 300 µM)	128 µg/mL (≈ 300 µM)	256 µg/mL (≈ 600 µM)	256 µg/mL (≈ 600 µM)	256 µg/mL (≈ 600 µM)	256 µg/mL (≈ 600 µM)	256 µg/mL (≈ 600 µM)	128 µg/mL (≈ 300 µM)	256 µg/mL (≈ 600 µM)	128 µg/mL (≈ 300 µM)	256 µg/mL (≈ 600 µM)
CC(=O)Nc1ccc(S(=O)(=O)/C(=C\c2ccccc2Cl)C(=O)c2nccs2)cc1	256 µg/mL (≈ 573 µM)	16 µg/mL (≈ 35.8 µM)	32 µg/mL (≈ 71.6 µM)	64 µg/mL (≈ 143 µM)	128 µg/mL (≈ 286 µM)	16 µg/mL (≈ 35.8 µM)	16 µg/mL (≈ 35.8 µM)	256 µg/mL (≈ 573 µM)	128 µg/mL (≈ 286 µM)	32 µg/mL (≈ 71.6 µM)	64 µg/mL (≈ 143 µM)
CC(=O)Nc1ccc(S(=O)(=O)C/C(=N/O)c2nccs2)cc1	64 µg/mL (≈ 189 µM)	64 µg/mL (≈ 189 µM)	128 µg/mL (≈ 377 µM)	128 µg/mL (≈ 377 µM)	64 µg/mL (≈ 189 µM)	64 µg/mL (≈ 189 µM)	64 µg/mL (≈ 189 µM)	128 µg/mL (≈ 377 µM)	256 µg/mL (≈ 754 µM)	64 µg/mL (≈ 189 µM)	64 µg/mL (≈ 189 µM)
Nc1ccc(S(=O)(=O)Nc2nccs2)cc1 [SULFATHIAZOLE]	64 µg/mL (≈ 251 µM)	128 µg/mL (≈ 501 µM)	128 µg/mL (≈ 501 µM)	64 µg/mL (≈ 251 µM)	128 µg/mL (≈ 501 µM)	128 µg/mL (≈ 501 µM)	256 µg/mL (≈ 1000 µM)	128 µg/mL (≈ 501 µM)	128 µg/mL (≈ 501 µM)	512 µg/mL (≈ 2010 µM)	128 µg/mL (≈ 501 µM)
CC(=O)Nc1ccc(S(=O)(=O)C/C(=N/Nc2ccccc2)c2nccs2)cc1	128 µg/mL (≈ 309 µM)	128 µg/mL (≈ 309 µM)	256 µg/mL (≈ 618 µM)	256 µg/mL (≈ 618 µM)	256 µg/mL (≈ 618 µM)	256 µg/mL (≈ 618 µM)	256 µg/mL (≈ 618 µM)	256 µg/mL (≈ 618 µM)	64 µg/mL (≈ 154 µM)	256 µg/mL (≈ 618 µM)	256 µg/mL (≈ 618 µM)
N#CCO/N=C(/CS(=O)(=O)c1ccc(N)cc1)c1nccs1	64 µg/mL (≈ 190 µM)	64 µg/mL (≈ 190 µM)	128 µg/mL (≈ 381 µM)	64 µg/mL (≈ 190 µM)	64 µg/mL (≈ 190 µM)	64 µg/mL (≈ 190 µM)	16 µg/mL (≈ 47.6 µM)	64 µg/mL (≈ 190 µM)	128 µg/mL (≈ 381 µM)	32 µg/mL (≈ 95.1 µM)	8 µg/mL (≈ 23.8 µM)
COc1ccc(/C=C(/C(=O)c2nccs2)S(=O)(=O)c2ccc(NC(C)=O)cc2)cc1	4 µg/mL (≈ 9.04 µM)	4 µg/mL (≈ 9.04 µM)	32 µg/mL (≈ 72.3 µM)	32 µg/mL (≈ 72.3 µM)	16 µg/mL (≈ 36.2 µM)	32 µg/mL (≈ 72.3 µM)	32 µg/mL (≈ 72.3 µM)	128 µg/mL (≈ 289 µM)	128 µg/mL (≈ 289 µM)	128 µg/mL (≈ 289 µM)	64 µg/mL (≈ 145 µM)
C#CCO/N=C(/CS(=O)(=O)c1ccc(NC(C)=O)cc1)c1nccs1	32 µg/mL (≈ 84.8 µM)	64 µg/mL (≈ 170 µM)	64 µg/mL (≈ 170 µM)	64 µg/mL (≈ 170 µM)	64 µg/mL (≈ 170 µM)	32 µg/mL (≈ 84.8 µM)	32 µg/mL (≈ 84.8 µM)	64 µg/mL (≈ 170 µM)	128 µg/mL (≈ 339 µM)	64 µg/mL (≈ 170 µM)	16 µg/mL (≈ 42.4 µM)
CC(=O)Nc1ccc(S(=O)(=O)C/C(=N/OCc2ccc(Cl)cc2)c2nccs2)cc1	32 µg/mL (≈ 69 µM)	64 µg/mL (≈ 138 µM)	128 µg/mL (≈ 276 µM)	64 µg/mL (≈ 138 µM)	64 µg/mL (≈ 138 µM)	32 µg/mL (≈ 69 µM)	64 µg/mL (≈ 138 µM)	64 µg/mL (≈ 138 µM)	128 µg/mL (≈ 276 µM)	32 µg/mL (≈ 69 µM)	8 µg/mL (≈ 17.2 µM)
